Assay results: PubChem BioAssay AID1996
Values after ≈ are worked out from the molar mass of the structure shown.

settings: buffer; pH 7.4; 200.0 µM

solubility kinetic | SMILES
2.9 µg/mL (≈ 8.93 µM) | O=c1c2ccc(Cl)cc2nc2n1CC/C2=C\c1cccc(O)c1
< 0.6 µg/mL | CCOC(=O)c1ccsc1NC(=O)c1ccco1
5.6 µg/mL (≈ 16.7 µM) | CC(OC(=O)c1ccc([N+](=O)[O-])cc1)C(=O)NCC1CCCCC1 (centres undefined)
0.5 µg/mL (≈ 1.61 µM) | Cc1cc(C)cc(NC(=O)C2CCCN(c3ncccn3)C2)c1 (centres undefined)
> 51.4 µg/mL | CCOc1ccc(C(=O)OC(C)CN2CCN(C)CC2)cc1.Cl (centres undefined)
13 µg/mL (≈ 45.4 µM) | CC1CCc2sc(C(=O)NCc3ccccn3)cc2C1 (centres undefined)
> 35 µg/mL | CN(C)/C(=N\O)c1c(Cl)cccc1Cl
4.7 µg/mL (≈ 14.7 µM) | CC(C)(C)c1cc(C(=S)N2CCCC2)cc(C(C)(C)C)c1O
> 48.5 µg/mL | O=C(CN1CCOCC1)NN=C(c1ccccc1)c1ccccc1
> 46.4 µg/mL | COC(=O)C1CCN(c2ccc([N+](=O)[O-])cc2[N+](=O)[O-])CC1
> 32.7 µg/mL | O/N=C(\CN1CCCCC1)c1ccccc1
2.3 µg/mL (≈ 8.3 µM) | Cc1ccnc(NCc2ccc(Br)cc2)c1
> 45.5 µg/mL | COc1cc(OC)c(S(=O)(=O)NC(C)C)cc1C(=O)O
> 52.9 µg/mL | O=C(O)CSCC(=O)N1CCN(Cc2ccc3c(c2)OCO3)CC1
> 42.2 µg/mL | O=C(NCCCn1ccnc1)c1ccc2nccnc2c1
> 31.1 µg/mL | Oc1ccccc1C(=S)N1CCCC1
> 30.5 µg/mL | COC(=O)C1CSC(C)(C)C(=O)N1 (centres undefined)
> 45.5 µg/mL | Cc1cc(C)cc(-c2nnc(SCC(=O)NC3CC3)o2)c1
> 34.6 µg/mL | NC(=Nc1ccc(Cl)cc1)c1ccccc1
43.3 µg/mL (≈ 133 µM) | COc1ccc(CN2CC[C@@H](N3CCOCC3)[C@H](O)C2)cc1F
36.1 µg/mL (≈ 145 µM) | COc1cccc(C(C)NC(=O)C2CCCO2)c1 (centres undefined)
> 46.3 µg/mL | O=C(CN1C(=O)c2ccccc2S1(=O)=O)N1CCCCC1
> 43.7 µg/mL | Cc1ccc(C23CCC(=O)N2C(C(=O)O)CS3)c(C)c1 (centres undefined)

solubility kinetic | SMILES
45.1 µg/mL (≈ 144 µM) | COc1cc(OC)c(NC(C)C(=O)N2CCCC2)cc1Cl (centres undefined)
> 49.4 µg/mL | Cc1cccc(-c2noc(CNS(=O)(=O)c3ccccc3)n2)c1
> 50.3 µg/mL | C=CCN1C(=O)C(CC(=O)O)SC1=Nc1cccc([N+](=O)[O-])c1 (centres undefined)
> 51.4 µg/mL | CN1CCN(c2ncc(CN3C(=O)c4ccccc4C3=O)s2)CC1
0.3 µg/mL (≈ 0.879 µM) | O=C(c1cc2cc(F)ccc2[nH]1)N1CCN(c2ccc(F)cc2)CC1
> 46.4 µg/mL | CCC1CCCCN1C(=O)CCS(=O)(=O)c1ccccc1 (centres undefined)
> 37.5 µg/mL | Cc1nc(C)c(C(=O)Nc2cccc(F)c2)s1
33.6 µg/mL (≈ 121 µM) | Oc1c(Cl)cc(CN2CCOCC2)c2cccnc12
> 44.3 µg/mL | O=C(CCCO)NNc1c2ccccc2nc2ccccc12
40.7 µg/mL (≈ 113 µM) | COc1ccc(N2CCN(C(=O)c3ccccc3F)CC2)c([N+](=O)[O-])c1
36.7 µg/mL (≈ 137 µM) | O=C(Nc1ccccc1)OCc1cnc(Cl)s1
< 0.2 µg/mL | CCn1cc(C(=O)Nc2cccc(C)c2)c(=O)c2ccc(C)nc21
5.2 µg/mL (≈ 14.2 µM) | COc1cc(OC)cc(C(=O)NCCSCc2ccc(Cl)cc2)c1
> 47.5 µg/mL | O=C(O)c1cc(-c2ccc(Cl)cc2)n(-c2ccc(F)cc2)n1
> 53.5 µg/mL | CN(C(=O)Cc1c(C(=O)O)n(C)c2ccccc12)c1ccc(Cl)cc1
0.7 µg/mL (≈ 2.35 µM) | Cc1ccc(N/C=C(\C#N)S(=O)(=O)c2ccccc2)cc1
> 43.6 µg/mL | Cc1ccc(N2C(=O)N(C(C)C)C(C)(C)CC2(C)O)cc1 (centres undefined)
> 42.8 µg/mL | COc1ccccc1C(=O)NCC(=O)Nc1cccnc1
51 µg/mL (≈ 149 µM) | CN1CCN(C(=S)NC(=O)c2ccc(Br)cc2)CC1
> 43.6 µg/mL | Cc1ccc(S(=O)(=O)NCCN2CCOCC2)s1
> 47.7 µg/mL | O=C(Nc1cccc(Cl)c1N1CCOCC1)c1cccnc1
42.4 µg/mL (≈ 136 µM) | CC12CC3(C)CC(C)(C1)CC(C(=O)NCc1ccccn1)(C2)C3
3.3 µg/mL (≈ 10.8 µM) | O=c1[nH]c(O)c(/C=C2\C=Nc3ccc(Br)cc32)[nH]1

solubility kinetic | SMILES
9 µg/mL (≈ 28.9 µM) | COc1ccc(Cl)cc1NC(=O)c1noc(C)c1[N+](=O)[O-]
> 49.9 µg/mL | CC1CN(C(=S)Nc2ccc(SC(F)F)cc2)CC(C)O1 (centres undefined)
> 33.5 µg/mL | Cc1csc(NC(=O)c2cc(C)on2)n1
33 µg/mL (≈ 142 µM) | COc1ccc(C(=O)c2cnc[nH]2)cc1OC
< 0.7 µg/mL | Cc1ccc(Cl)cc1NC(=O)COC(=O)c1ccccc1O
> 44.4 µg/mL | CCOC(=O)N1CCN(c2cc(=O)n(C)c(=O)n2C)CC1
< 0.3 µg/mL | O=S(=O)(c1ccccc1)c1cnc(-c2ccccc2)nc1N1CCCC1
16.7 µg/mL (≈ 52 µM) | O=C(NC12CC3CC(CC(C3)C1)C2)c1cccc(OC(F)F)c1
5.4 µg/mL (≈ 16.6 µM) | O=C(COC(=O)c1ccc(Br)cc1)NC1CCCC1
32.4 µg/mL (≈ 103 µM) | Cc1onc(C(=O)Nc2cccc(C(F)(F)F)c2)c1[N+](=O)[O-]
7.9 µg/mL (≈ 22.8 µM) | CCN(c1cccc2ccccc12)S(=O)(=O)c1ccc(Cl)nc1
31.9 µg/mL (≈ 145 µM) | CC1NC(=S)N(Cc2ccccc2)C1=O (centres undefined)
41.1 µg/mL (≈ 132 µM) | COc1cccc(OC)c1C(=O)Nc1cccc2c1CCCC2
49.1 µg/mL (≈ 137 µM) | O=C(COC(=O)CCC(=O)c1ccc(F)cc1)NCCc1ccccc1
43.1 µg/mL (≈ 131 µM) | CC1CN(C(=O)COC(=O)c2ccc(F)cc2Cl)CC(C)O1 (centres undefined)
32.2 µg/mL (≈ 140 µM) | Cc1cc(C(=O)O)c(C)n1Cc1ccncc1
> 45.5 µg/mL | Nc1ccc(SCC(=O)Nc2cccc([N+](=O)[O-])c2)cc1
0.9 µg/mL (≈ 2.78 µM) | O=C1CC(C(=O)Nc2cccc(F)c2)n2c(nc3ccccc32)N1 (centres undefined)
4 µg/mL (≈ 13.7 µM) | CNC(=S)N1CCN(c2nc3ccccc3s2)CC1
32.8 µg/mL (≈ 102 µM) | CCn1cc(CCC(=O)NCCc2ccccc2)c2ccccc21
1 µg/mL (≈ 3.74 µM) | C=CCn1cc(/C=C2/NC(=O)NC2=O)c2ccccc21
1.4 µg/mL (≈ 4.08 µM) | O=[N+]([O-])c1ccc(NC(=S)N2CCN(c3ccccn3)CC2)cc1

More lines, now with the values behind:

SMILES | solubility kinetic
Cc1ccc(S(=O)(=O)NCc2ccncc2)c(C)c1C | 34.7 µg/mL (≈ 119 µM)
Cc1ccc(S(=O)(=O)NCC(=O)Nc2ccc3c(c2)OCO3)cc1 | 49.4 µg/mL (≈ 142 µM)
COC(=O)C1=C(N)OC2=C(C(=O)CCC2)C1c1ccccc1OC (centres undefined) | 14.5 µg/mL (≈ 44 µM)
CN1CCN(C(=O)c2ccc(CNS(=O)(=O)c3ccc(F)c(Cl)c3)cc2)CC1 | 59.4 µg/mL (≈ 139 µM)
COc1ccc(NC(=S)NCc2ccccn2)cc1OC | > 45.5 µg/mL
O=C(O)C1CCC(N2C(=O)c3cccc([N+](=O)[O-])c3C2=O)CC1 (centres undefined) | > 47.7 µg/mL
CN(CCC1CCOCC1)Cc1nc(Cc2ccccc2F)no1 | > 50 µg/mL
Cc1ccc(S(=O)(=O)N2CCC(C(N)=O)CC2)cc1[N+](=O)[O-] | > 49.1 µg/mL
CC(C)(C)CNc1cc(N2CCOCC2)ccc1[N+](=O)[O-] | 1.8 µg/mL (≈ 6.14 µM)
O=C(COC(=O)c1cccc([N+](=O)[O-])c1)NC1CCCC1 | 32.3 µg/mL (≈ 111 µM)
Brc1ccc(CN2CCN(c3ccccc3)CC2)o1 | 22.5 µg/mL (≈ 70 µM)
Cc1csc(NC(=O)c2ccc(Br)s2)n1 | 24.9 µg/mL (≈ 82.1 µM)
O=S(=O)(c1ccc2ccccc2c1)N1CCN(c2ccc(O)cc2)CC1 | 4.6 µg/mL (≈ 12.5 µM)
O=C(CN1C(=O)C2CC=CCC2C1=O)NC1CCCCC1 (centres undefined) | 42.5 µg/mL (≈ 146 µM)
CCN(CC)CC(O)Cn1c(-c2cccc(Cl)c2)nc2cc(C)c(C)cc21 (centres undefined) | 53.4 µg/mL (≈ 138 µM)
O=C(O)c1cc(=O)n(Cc2ccccc2)c(=O)[nH]1 | > 36.9 µg/mL
CCOC(=O)c1sc(S(C)(=O)=O)c2c1CC(C)(C)C/C2=N/O | > 51.8 µg/mL
O=C(NCCc1ccc(F)cc1)Nc1ccccc1 | 6.1 µg/mL (≈ 23.6 µM)
O=C(O)c1ccc(Cn2cnc3cccnc32)cc1 | > 38 µg/mL
Cc1cc(N2CCN(C(=O)Nc3ccc(F)cc3F)CC2)c2ccccc2n1 | > 57.4 µg/mL
Cn1c(SCC(N)=O)nnc1-c1ccc(C(C)(C)C)cc1 | > 45.7 µg/mL
CCOc1cc(C=O)ccc1OCC(=O)N1CCCC1 | > 41.6 µg/mL
CCOc1cccc(C2C(C(=O)c3ccc(C)o3)=C(O)C(=O)N2Cc2ccccc2)c1 (centres undefined) | 62.5 µg/mL (≈ 150 µM)
CC(=O)Nc1ccccc1OCc1cnc(Cl)s1 | > 42.4 µg/mL
Br.Cn1c(=N)n(CC(=O)c2ccc(F)cc2)c2ccccc21 | > 54.6 µg/mL
COc1ccccc1-n1c(-c2ccc(C)cc2)nc2ccccc2c1=O | 3.3 µg/mL (≈ 9.64 µM)

SMILES | solubility kinetic
Cc1ccc(C2(c3noc(CN(C)CCO)n3)CCCC2)cc1 | 39.5 µg/mL (≈ 125 µM)
O=C(NC1CCN(c2ncccn2)CC1)c1c(F)cccc1F | > 47.7 µg/mL
COc1ccc(-c2cc(C3CC3)nc(N)c2C#N)cc1 | 1.7 µg/mL (≈ 6.41 µM)
Cc1ccc(-c2csc(NC(=O)CN3C(=O)CCC3=O)n2)cc1 | 0.5 µg/mL (≈ 1.52 µM)
Cc1ccc(CCC(=O)Nc2ccc(Cl)cc2)o1 | 23.9 µg/mL (≈ 90.6 µM)
COCCCNC(=O)c1c(N)n(Cc2ccco2)c2nc3ccccc3nc12 | 4.8 µg/mL (≈ 12.7 µM)
CCOCCCNC(=O)c1c[nH]c2cc(OC)ccc2c1=O | > 45.7 µg/mL
CCC(C)(C)NC(=O)/C=C/c1ccccc1[N+](=O)[O-] | 31.4 µg/mL (≈ 120 µM)
O=c1[nH]c2ccc(S(=O)(=O)Nc3ccc(Cl)cc3)cc2o1 | > 48.7 µg/mL
N#CCCSc1ccccc1NC(=O)c1cc(=O)c2ccccc2o1 | 2.2 µg/mL (≈ 6.28 µM)
CCN1C(=O)CC(NCc2ccc(S(N)(=O)=O)cc2)C1=O (centres undefined) | > 46.7 µg/mL
COc1cc(/C=C/c2nc3ccccc3c(=O)[nH]2)cc(Cl)c1O | 43.2 µg/mL (≈ 131 µM)
CSc1ccccc1C(=O)N1CCc2ccccc2C1 | > 42.5 µg/mL
Cc1nc([N+](=O)[O-])cn1CC(=O)c1ccccc1 | 31.5 µg/mL (≈ 128 µM)
COc1ccc(C(=O)NCCNC(=O)c2ccc(OC)cc2)cc1 | 2.9 µg/mL (≈ 8.83 µM)
Cc1c(Cl)cccc1NC(=O)C1C2C=CC(C2)C1C(=O)O (centres undefined) | > 45.9 µg/mL
O=C(Cc1ccccc1)Nc1ccc(NC(=O)c2ccccc2)c(Cl)c1 | 2.3 µg/mL (≈ 6.3 µM)
O=C(Nc1ccc(CN2CCOCC2)cc1)c1ccc(Cl)cc1 | 9.2 µg/mL (≈ 27.8 µM)
CCc1ccc(N2CN(Cc3ccco3)CNC2=S)cc1 | 11.9 µg/mL (≈ 39.5 µM)
O=[N+]([O-])c1ccc(O)c(C(C#Cc2ccccc2)N2CCOCC2)c1 (centres undefined) | 12.9 µg/mL (≈ 38.1 µM)
O=C(O)c1c(N2CCCCC2)ccc([N+](=O)[O-])c1N1CCCCC1 | 46.4 µg/mL (≈ 139 µM)
O=C(NC1CCCCC1)C1CCC(=O)N(C2CC2)C1 (centres undefined) | > 39.7 µg/mL
Cc1ccc(Nc2nc(N)c([N+](=O)[O-])c(NCc3ccccc3)n2)cc1 | 0.3 µg/mL (≈ 0.856 µM)
O=S(=O)(/N=C(/Nc1cccnc1)c1ccccc1)c1ccc(F)cc1F | > 56 µg/mL
COc1ccc2cc(C(=O)O)n(CC(=O)c3ccccc3)c2c1 | > 46.4 µg/mL
